Results as given in US20240239811A1, “5-(5-(PIPERIDIN-4-YL)THIENO[3,2-C]PYRAZOL-2-YL]INDAZOLE DERIVATIVES AND RELATED COMPOUNDS AS MODULATORS FOR SPLICING NUCLEIC ACIDS AND FOR THE T” (REMIX THERAPEUTICS INC., priority 2020, published 2024).
Structures can show the parent of a compound that is named as a salt.

Key:
Type in all cases: cell-based
HTT mRNA = assay: Splicing assay (RT-qPCR) monitoring HTT splice variants, canonical (CJ) and alternative (AJ) junction; conditions: 50% response, A673 or K562 cell line, 24 hours; for IC50: decrease in CJ mRNA; for AC50: increase in AJ mRNA
Experimental: (§1) Compounds described herein were used to modulate RNA transcript abundance in cells. The expression of a target mRNA was measured by detecting the formation of an exon-exon junction in the canonical transcript (CJ). A compound mediated exon-inclusion event was detected by observing an increase in formation of a new junction with an alternative exon (AJ). Real-time qPCR assays were used to detect these splicing switches and interrogate the potency of various compounds towards different target genes. A high-throughput real time quantitative PCR (RT-qPCR) assay was developed to measure these two isoforms of the mRNA (CJ and AJ) for an exemplary gene, HTT, together with a control housekeeping gene, GAPDH or GUSB or PPIA, used for normalization. Briefly, the A673 or K562 cell line was treated with various compounds described herein (e.g., compounds of Formula (I)). After treatment, the levels of the HTT mRNA targets were determined from each sample of cell lysate by cDNA synthesis followed by qPCR.
• Cells-to-CT 1-step kit: ThermoFisher A25602, Cells-to-CT lysis reagent: ThermoFisher 4391851C, TaqMan™ Fast Virus 1-Step Master Mix: ThermoFisher 4444436 • GAPDH: VIC-PL, ThermoFisher 4326317E (Assay: Hs99999905_ml)—used for K562/suspension cell lines • GUSB: VIC-PL, ThermoFisher 4326320E (Assay: Hs99999908_ml)—used for K562/suspension cell lines • PPIA: VIC-PL, ThermoFisher 4326316E (Assay: Hs99999904_ml)—used for A673/adherent cell lines
(§2) The A673 cell line was cultured in DMEM with 10% FBS. Cells were diluted with full growth media and plated in a 96-well plate (15,000 cells in 100ul media per well). The plate was incubated at 37° C. with 5% CO2 for 24 hours to allow cells to adhere. An 11-point 3-fold serial dilution of the compounds was made in DMSO then diluted in media in an intermediate plate. Compounds were transferred from the intermediate plate to the cell plate with the top dose at a final concentration of 10 uM in the well. Final DMSO concentration was kept at or below 0.25%. The cell plate was returned to the incubator at 37° C. with 5% CO2 for an additional 24 hours.
(§3) The K562 cell line was cultured in IMDM with 10% FBS. For K562, cells were diluted with full growth media and plated in either a 96-well plate (50,000 cells in 50 uL media per well) or a 384-well plate (8,000-40,000 cells in 45 uL media per well). An 11-point 3-fold serial dilution of the compounds were made in DMSO then diluted in media in an intermediate plate. Compound was transferred from the intermediate plate to the cell plate with the top dose at a final concentration of 10 uM in the well. Final DMSO concentration was kept at or below 0.25%. Final volume was 100 uL for 96-well plate and 50 uL for 384-well plate. The cell plate was then placed in an incubator at 37° C. with 5% CO2 for 24 hours.
The cells were then gently washed with 50 uL-100 uL cold PBS before proceeding to addition of lysis buffer. 30 uL-50 uL of room temperature lysis buffer with DNAse I (and optionally RNAsin) was added to each well. Cells were shaken/mixed thoroughly at room temperature for 5-10 minutes for lysis to take place and then 3 uL-5 uL of room temperature stop solution was added and wells were shaken/mixed again. After 2-5 minutes, the cell lysate plate was transferred to ice for RT-qPCR reaction setup. The lysates could also be frozen at −80° C. for later use.
In some cases, a direct lysis buffer was used. An appropriate volume of 3X lysis buffer (10 mM Tris, 150 mM NaCl, 1.5%-2.5% Igepal and 0.1-1 U/uL RNAsin, pH 7.4) was directly added to either K562 or A673 cells in media and mixed by pipetting 3 times. The plates were then incubated at room temperature with shaking/rocking for 20-50 minutes to allow for lysis to take place. After this time, the cell lysate plate was transferred to ice to set up for the RT-qPCR reactions. The lysates could also be frozen at −80° C. for later use. […]

HTT CJ mRNA = assay: Gene panel canonical junction qPCR assay, HTT; conditions: Table 6, decrease in CJ mRNA, read-out: HTT IC50 (decrease in CJ mRNA levels)
Experimental: as §1, §2, §3
(§4) The data analysis was performed by first determining the ΔCt vs the housekeeper gene. This ΔCt was then normalized against the DMSO control (ΔΔCt) and converted to RQ (relative quantification) using the 2^(−ΔΔCt) equation. The RQ were then converted to a percentage response by arbitrarily setting an assay window of 3.5 ΔCt for HTT-CJ and an assay window of 9 ΔCt for HTT-AJ. […] The percentage response was then fitted to the 4 parametric logistic equation to evaluate the concentration dependence of compound treatment. The increase in AJ mRNA is reported as AC50 (compound concentration having 50% response in AJ increase) while the decrease in CJ mRNA levels is reported as IC50 (compound concentration having 50% response in CJ decrease).
(§5) Additional studies were carried out for a larger panel of genes using the protocol provided above. The junction between flanking upstream and downstream exons was used to design canonical junction qPCR assays. At least one of the forward primer, reverse primer or the CY5-labeled 5′ nuclease probe (with 3′ quencher such as ZEN/Iowa Black FQ) was designed to overlap with the exon junction to capture the CJ mRNA transcript. BLAST was used to confirm the specificity of the probeset and parameters such as melting temperature, GC content, amplicon size, and primer dimer formation are considered during their design. Data for the decrease in CJ mRNA levels for three exemplary genes (HTT, SMN2, and Target C) analyzed in this panel are reported as IC50 (compound concentration having […] in CJ decrease).

SMN2 CJ mRNA = assay: Gene panel canonical junction qPCR assay, SMN2; conditions: Table 6, decrease in CJ mRNA, read-out: SMN2 IC50 (decrease in CJ mRNA levels)
Experimental: as §1, §2, §3, §4, §5

Target C CJ mRNA = assay: Gene panel canonical junction qPCR assay, Target C; conditions: Table 6, decrease in CJ mRNA, read-out: Target C IC50 (decrease in CJ mRNA levels)
Experimental: as §1, §2, §3, §4, §5

Row | Compound | IC50 (HTT mRNA) | AC50 (HTT mRNA) | IC50 (HTT CJ mRNA) | IC50 (SMN2 CJ mRNA) | IC50 (Target C CJ mRNA)
1 | Cn1cc2cc(-c3nc4sc(N5CCC56CCNCC6)cc4s3)cc(F)c2n1 [Compound 201, 1-[2-(7-fluoro-2-methylindazol-5-yl)thieno[2,3-d] [1,3]thiazol-5-yl]-1,7-diazaspiro[3.5]nonane] | > 10 µM | > 10 µM | > 10 µM | > 10 µM | > 10 µM
2 | Cc1cn2nc(-c3nc4sc(C5CCOCC5)cc4s3)cc(C)c2n1 [Compound 196, 2,8-dimethyl-6-[5-(oxan-4-yl)thieno[2,3-d][1,3]thiazol-2-yl]imidazo[1,2-b]pyridazine] | 1 to 10 µM | 1 to 10 µM | 1 to 10 µM | 1 to 10 µM | 1 to 10 µM
3 | Cc1cn2nc(-n3cc4sc(N5CCC(NC(C)(C)C)C5)cc4n3)cc(C)c2n1 (stereo not shown) [Compound 189, N-tert-butyl-1-(2-{2,8-dimethylimidazo[1,2-b]pyridazin-6-yl}thieno[3,2-c]pyrazol-5-yl) pyrrolidin-3-amine] | > 10 µM | > 10 µM | > 10 µM | 1 to 10 µM | > 10 µM
4 | Cc1nc2c(F)cc(-n3cc4sc(C5CCNCC5)cc4n3)cc2s1 [Compound 168] | 1 to 10 µM | 1 to 10 µM | 1 to 10 µM | 0.1 to 1 µM | > 10 µM
5 | CN1CC2(C1)CN(c1cc3sc(-c4cc(F)c5nn(C)cc5c4)nc3s1)C2 [Compound 146, 7-fluoro-2-methyl-5-(5-[6-methyl-2,6-diazaspiro[3.3]heptan-2-yl]thieno[2,3-d][1,3]thiazol-2-yl)indazole] | 0.1 to 1 µM | 0.1 to 1 µM | 0.1 to 1 µM | < 0.1 µM | 0.1 to 1 µM
6 | Cc1cn2nc(-n3cc4cc(C5CCNCC5)sc4n3)nc2c(C)n1 [Compound 163, 4-(2-{6,8-dimethyl-[1,2,4]triazolo [1,5-a]pyrazin-2-yl}thieno[2,3-c]pyrazol-5-yl)piperidine] | 1 to 10 µM | 1 to 10 µM | 1 to 10 µM | 1 to 10 µM | 1 to 10 µM
7 | COc1c(-c2cc3cn(C4CCNCC4)nc3s2)cc2cn(C)nc2c1F [Compound 218] | < 0.1 µM | 0.1 to 1 µM | < 0.1 µM | < 0.1 µM | 0.1 to 1 µM
8 | Cn1cc2cc(-c3cc4cn(C5CCNCC5)nc4s3)c(C#N)cc2n1 [Compound 211] | 1 to 10 µM | 1 to 10 µM | 1 to 10 µM | 0.1 to 1 µM | 1 to 10 µM
9 | Cn1cc2ccc(-c3nc4sc(C5CCNCC5)cc4s3)cc2n1 [Compound 127, 2-methyl-6-[5-(piperidin-4-yl)thieno [2,3-d][1,3]thiazol-2-yl]indazole hydrochloride] | 1 to 10 µM | 1 to 10 µM | 1 to 10 µM | 1 to 10 µM | 1 to 10 µM
10 | Cc1cn2cc(-n3cc4sc(C5CCNCC5)cc4n3)nc2c(C)n1 [Compound 181] | 1 to 10 µM | 1 to 10 µM | 1 to 10 µM | 1 to 10 µM | > 10 µM
11 | CC1CN(c2cc3sc(-c4cc(F)c5nn(C)cc5c4)nc3s2)CCN1 (stereo not shown) [Compound 135, 7-fluoro-2-methyl-5-[5-(3-methylpiperazin-1-yl)thieno[2,3-d][1,3]thiazol-2-yl]indazole] | 0.1 to 1 µM | 0.1 to 1 µM | 0.1 to 1 µM | < 0.1 µM | 0.1 to 1 µM
12 | Cc1cn2nc(-n3cc4cc(C5CCNCC5)sc4n3)cc2c(C)n1 [Compound 164] | 1 to 10 µM | 1 to 10 µM | 1 to 10 µM | 1 to 10 µM | 1 to 10 µM
13 | Cc1cn2cc(-n3cc4cc(C5CCNCC5)sc4n3)ncc2n1 [Compound 158] | 0.1 to 1 µM | 0.1 to 1 µM | 0.1 to 1 µM | 0.1 to 1 µM | 0.1 to 1 µM
14 | Cn1cc2cc(-c3cn4nc(C5CCNCC5)nc4s3)cc(F)c2n1 [Compound 102, 7-fluoro-2-methyl-5-[2-(piperidin-4-yl)-[1,2,4]triazolo[3,2-b][1,3]thiazol-5-yl]indazole] | 0.1 to 1 µM | 0.1 to 1 µM | 0.1 to 1 µM | < 0.1 µM | 0.1 to 1 µM
15 | Cn1cc2cc(-n3cc4sc(C5CCNCC5)cc4n3)c(O)cc2n1 [Compound 178] | 1 to 10 µM | 1 to 10 µM | 1 to 10 µM | 1 to 10 µM | 1 to 10 µM
16 | Cn1cc2cc(-c3cc4sc(C5CCNCC5)nc4s3)cc(F)c2n1 [Compound 124, 7-fluoro-2-methyl-5-[2-(piperidin-4-yl)thieno[2,3-d][1,3]thiazol-5-yl]indazole] | 0.1 to 1 µM | < 0.1 µM | 0.1 to 1 µM | < 0.1 µM | 0.1 to 1 µM
17 | Cc1cn2cc(-n3cc4cc(C5CCNCC5)sc4n3)cc(F)c2n1 [Compound 156] | < 0.1 µM | 0.1 to 1 µM | < 0.1 µM | < 0.1 µM | 0.1 to 1 µM
